3 compounds from US12721848B2, “Pharmaceutical composition for preventing or treating graft versus host disease comprising thiamine derivatives” (Kyungpook National University Industry-Academic Cooperation …, priority 2020, dated 2026) can be followed below.

Experiment [1] deals with graft versus host disease (GVHD) model mice. The source says: Referring to FIG. 2A, 5-week-old BALB/c male mice were acclimatized for 1 week, irradiated with 800 cGy radiation throughout the body, and then injected with 5×10^6 C57BL/6J-derived bone marrow cells and 1×10^7 splenocytes derived therefrom via IV injection, thereby constructing a GVHD in vivo model (positive control group, Positive). The syngeneic control group (Syngeneic) was constructed in the same manner as above while BALB/c-derived bone marrow cells were selected as the bone marrow cells to be injected.
The fursultiamine administration group (Fur50) was constructed by daily oral gavage of fursultiamine HCl at 50 mg/kg to the GVHD in vivo model.
The treatment effect of fursultiamine was investigated on the constructed experimental groups by measuring the change in weight every 3 days.
On Day 14, the comparison between the amounts of generation of CD4+ T cells and CD4+IFNg+ T cells, which are major factors causing GVHD, was performed in the spleens isolated from the mice.
On Day 14 of inducing the GVHD in vivo model, liver and large intestine tissues were extracted from the mice, fixed in 4% paraformaldehyde for 48 hours, and then embedded in paraffin. The resultant tissues were sliced into 5 μm sections and then subjected to hematoxylin and eosin (H&E) staining. (bar=100 um)

Experiment [2] deals with allo-reactive CD4+IFNg+ T cell generation. As to the kind of experiment: mixed lymphocyte reaction (GVHD in vitro validation model), flow cytometry. Conditions: for Amount of generation (%) of CD4+IFNg+ T cells: BALB/c irradiated splenocytes + C57BL6/J CD4+ T cells, 5 days, positive control 37.4, syngeneic control 15.3. The experiment is classed as cell-based, mouse. An excerpt:
A high amount of CD4+IFNg+ T cell generated can be inferred to allow the proliferation of T cells against allogenic antigens, thereby attacking the body organs of a patient. Therefore, a graft versus host disease (GVHD) in vitro validation model was subjected to a mixed lymphocyte reaction to compare the degree of allo-reactive CD4+IFNg+ T cell generation among thiamine derivatives by flow cytometry.
Specifically, BALB/c mice were sacrificed by cervical dislocation, and then the spleens were extracted, followed by erythrocyte lysis using ACK lysing buffer. Thereafter, the isolated spleen cells were irradiated at 2500 cGy.
The positive group was treated with 10, 50, and 100 uM benfotiamine, 1, 5, and 10 uM allithiamine, and 10, 50, and 100 uM fursultiamine to prepare experimental groups.
Thereafter, the cells were cultured in RPMI1640 (10% FBS, 1% penicillin streptomycin) at 37° C. for 5 days, and the cells were separated, followed by flow cytometry, to investigate the degree of CD4+IFNg+ T cell generation.
(In general: A flow cytometer gives signals particle by particle.)

Where [3] appears, read: spleen, Day 14, 50 mg/kg daily oral, in words.

The structures appear in SMILES notation.

As to `CC(=C(CCO)SSCC1CCCO1)N(C=O)Cc1cnc(C)nc1N` (stereo in doubt) [Fursultiamine, fursultiamine], the “infiltration of immune cells in the liver tissue (H&E staining)” value in experiment [1] (Day 14, 50 mg/kg daily oral, versus positive control group) was “reduced”. Besides, the “degree of infiltration of inflammatory cells into the liver and colon” value in experiment [1] (GVHD-induced mouse model, summary statement) was “reducing the degree of infiltration”. In experiment [1] (fursultiamine HCl 50 mg/kg daily oral gavage, Day 12 of oral administration), the “change in weight compared with the GVHD in vivo model” value is “significant recovery”. Besides, the “amount of generation of allogenic CD4+ T cells” value in experiment [1] (setting [3]) is reported as “reduced”. The “amount of generation of allogenic CD4+IFNg+ T cells” value in experiment [1] (setting [3]) is “reduced”. Also, in experiment [1] (spleen, Day 14, fursultiamine HCl 50 mg/kg daily oral gavage, positive control 18.3, syngeneic control 3.2), the “Amount of generation of CD4+IFNg+ T cells (%)” value was determined as 12.6%. Further, the “Amount of generation of CD4+ T cells (%)” value in experiment [1] (spleen, Day 14, fursultiamine HCl 50 mg/kg daily oral gavage, positive control 21.1, syngeneic control 6.9) is on record as 13.4%. In addition, the “Amount of generation (%) of CD4+IFNg+ T cells” value in experiment [2] (10 μM) turned out to be 34.9%; in experiment [2] (50 μM), 13.6%; in experiment [2] (100 μM), 12.5%. Moreover, the “degree of generation of CD4+IFNg+ T cells compared with the positive control” value (shortened to “degree … compared with the positive control”) in experiment [2] (at 50 uM or more, concentration dependent) was “significant reduction”.
With `C=CCSS/C(CCO)=C(/C)N(C=O)Cc1cnc(C)nc1N` [Allithiamine, allithiamine], the “Amount of generation (%) of CD4+IFNg+ T cells” value turned out to be 35.2% in experiment [2] (1 μM), 25.7% in experiment [2] (5 μM) and 23.9% in experiment [2] (10 μM). Further, the “degree … compared with the positive control” value in experiment [2] (at 5 uM or more, concentration dependent) was “significant reduction”.
For `C/C(=C(\CCOP(=O)(O)O)SC(=O)c1ccccc1)N(C=O)Cc1cnc(C)nc1N` [Benfotiamine, benfotiamine], the “Amount of generation (%) of CD4+IFNg+ T cells” value came out at 36.8% in experiment [2] (10 μM), 43.9% in experiment [2] (50 μM) and 40.1% in experiment [2] (100 μM). The “degree … compared with the positive control” value in experiment [2] (regardless of the concentration (10, 50, 100 uM)) is recorded as “no significant difference”.
